Where a name gives a salt, the structure may show the parent alone. Blank lines part the entries; values can stand above or below the compound they belong to.
Assays:
[1] = test system: Candida albicans DSM 1386; experiment: MIC test, efficacy versus microbes; format: cell-based; details: DSM1386, pH 6.5, Octopirox tested as 5%, Piroctone as 3.98% in butylpolyglycol, read-out: MIC in ppm pH 6.5 (Malassezia Agar)
Experimental: (§1) A compound according to Formula (2), namely 1-hydroxy-4-methyl-6-(2,4,4-trimethyl pentyl)-2(1H)-pyridone (named as Piroctone in the below table), is tested for efficacy versus various microbes. Comparison is made versus Piroctone Olamine (=Octopirox®).

[2] = test system: Malassezia globosa ATCC 4889; experiment: MIC test, efficacy versus microbes; format: cell-based; details: ATCC4889, pH 6.5, Octopirox tested as 5%, Piroctone as 3.98% in butylpolyglycol, read-out: MIC in ppm pH 6.5 (Malassezia Agar)
Experimental: as §1

[3] = test system: Saccharomyces cerevisiae DSM 70449; experiment: MIC test, efficacy versus microbes; format: cell-based; details: DSM70449, pH 6.5, Octopirox tested as 5%, Piroctone as 3.98% in butylpolyglycol, read-out: MIC in ppm pH 6.5 (Malassezia Agar)
Experimental: as §1

[4] = test system: Malassezia pachydermatis DSM 6172; experiment: MIC test, efficacy versus microbes; format: cell-based; details: DSM6172, pH 6.5, Octopirox tested as 5%, Piroctone as 3.98% in butylpolyglycol, read-out: MIC in ppm pH 6.5 (Malassezia Agar)
Experimental: as §1

[5] = test system: Malassezia furfur DSM 6170; experiment: MIC test, efficacy versus microbes; format: cell-based; details: DSM6170, pH 6.5, Octopirox tested as 5%, Piroctone as 3.98% in butylpolyglycol, read-out: MIC in ppm pH 6.5 (Malassezia Agar)
Experimental: as §1

various microbes = experiment: MIC tests overall, comparison versus Piroctone Olamine; format: cell-based
Experimental: as §1

[6] = Solubility testing in various solvents; format: physicochemical; details: for Solubility: directly after addition and after standing for a week
Experimental: A compound according to Formula (2), namely 1-hydroxy-4-methyl-6-(2,4,4-trimethylpentyl)-2(1H)-pyridone, is tested for solubility in various solvents. A 10% (w/w) solution of this compound is tested. The solubility is tested directly after addition as well as after being left to stand for a week.

- MIC [1]: 500 µg/mL
- MIC [2]: 500 µg/mL
- MIC [3]: 500 µg/mL
- MIC [4]: 500 µg/mL
- MIC [5]: 500 µg/mL
Structure (SMILES): Cc1cc(CC(C)CC(C)(C)C)n(O)c(=O)c1 (stereo not shown) [Octopirox, monoethanolamine salt of 1-hydroxy-4-methyl-6-(2,4,4-trimethylpentyl)-2(1H)-pyridone]

- Comments (solubility observation) ([6]; 10% (w/w) in 1,3-Dioxolane): Not soluble.
- Comments (solubility observation) ([6]; 10% (w/w) in 2-Methyltetrahydrofuran): Not soluble.
- Comments (solubility observation) ([6]; 10% (w/w) in 3-Pentanone): Not completely soluble, supernatant
- Comments (solubility observation) ([6]; 10% (w/w) in Acetone (purity >99%)): Dissolves to a large extend.
- Comments (solubility observation) ([6]; 10% (w/w) in Ethanol): Dissolves slowly leading to a clear
- Comments (solubility observation) ([6]; 10% (w/w) in Isopropanol): Not completely dissolved,
- Comments (solubility observation) ([6]; 10% (w/w) in Methanol): Soluble. Resulting soltuion is clear.
- Solubility ([6]; 10% (w/w) solution in 1,3-Dioxolane): no
- Solubility ([6]; 10% (w/w) solution in 2-Methyltetrahydrofuran): no
- Solubility ([6]; 10% (w/w) solution in 3-Pentanone): no
- Solubility ([6]; 10% (w/w) solution in Acetone (purity >99%)): no
- Solubility ([6]; 10% (w/w) solution in Ethanol): excellently and yes
- Solubility ([6]; 10% (w/w) solution in Isopropanol): no
- Solubility ([6]; 10% (w/w) solution in Methanol): excellently and yes
- Solubility ([6]; 10% (w/w) solution in tert. Butanol (2.5% H2O)): no
Structure (SMILES): Cc1cc(CC(C)CC(C)(C)C)n(O)c(=O)c1 (stereo not shown) [Piroctone, 1-hydroxy-4-methyl-6-(2,4,4-trimethylpentyl)-2(1H)-pyridone]
- Mass efficacy better than Piroctone Olamine (various microbes; antimicrobial efficacy per mass): around 20%
- Activity in MIC tests compared with Piroctone Olamine (various microbes; conclusion from Experiment 2): same activity in MIC tests at a lower concentration than Piroctone Olamine

Reference: patent US11753379B2, “Process for forming 2-hydroxypyridine-1-oxide or derivatives thereof” (Clariant International Ltd., priority 2018, dated 2023)
